≈ marks a conversion by molar mass, not a printed value. Where a SMILES comes first, the peptide text is derived from it. Bridges are numbered along the chain shown (N, C = ends).
How the values were obtained:
[1] = test system: Streptococcus; assay: MIC, summary over the panel; format: cell-based; conditions: including S. agalactiae ATCC13813, S. dysgalactiae CVCC3938, S. agalactiae CAU-FRI-2022-02
Procedure: (§1) The minimum inhibitory concentration (MIC) of the peptides was assayed using the micro broth dilution method, which is an important indicator of the antibacterial activity of the AMPs ([Liu et al., 2021]). […] The MIC was defined as the lowest concentration of ones at which no visible bacterial growth was observed. All the assays were repeated thrice.

[2] = test system: gram-negative bacteria; assay: MIC, summary over the panel; format: cell-based; conditions: summary of the panel
Procedure: as §1

[3] = test system: S. aureus ATCC43300; assay: Serum stability read out as MIC; format: in vitro ADME, Staphylococcus aureus; conditions: 1–8 h, triplicates
Procedure: (§2) The stability of Ple-AB was assessed based on its antibacterial activity against S. aureus ATCC43300. Temperature stability was determined by incubation at 20, 40, 60, 80, and 100°C for 1 h ([Li et al., 2020]). The pH stability was determined by incubation in buffers with a pH of 2, 4, 6, 8, and 10 for 4 h ([Yang et al., 2017]). The peptides were incubated with different concentrations of metal ions, serum, artificial gastric fluid, and simulated intestinal fluid to assess their stability in the blood and intestines ([Lyu et al., 2019]). All the treatments were performed in triplicates.

[4] = test system: S. aureus ATCC43300; assay: Time-kill curve (bacterial kinetics in vitro); format: cell-based, Staphylococcus aureus; conditions: 1 × 10^5 CFU/mL, 37°C, 250 rpm, colony counting
Procedure: The bactericidal efficiency of Ple-AB was evaluated by plotting a time-kill curve ([Zheng et al., 2021]). Single colonies of the S. aureus ATCC43300 were picked for overnight activation, and 1% were transferred and incubated at 37°C until the logarithmic growth phase. […] Samples of 100 uL of bacteria were taken at 0, 0.5, 1, 2, 4, 6, 8, 10, 12, and 24 h, diluted, and coated to count the number of single colonies and plot the time-killing curve.

[5] = test system: S. agalactiae ATCC13813; assay: MIC/MBC, micro broth dilution; format: cell-based
Procedure: as §1

[6] = test system: S. epidermidis ATCC12228; assay: MIC/MBC, micro broth dilution; format: cell-based
Procedure: as §1

[7] = test system: S. agalactiae CAU-FRI-2022-02; assay: MIC/MBC, micro broth dilution; format: cell-based
Procedure: as §1

[8] = test system: S. dysgalactiae CVCC3938; assay: MIC/MBC, micro broth dilution; format: cell-based
Procedure: as §1

[9] = test system: S. agalactiae CAU-FRI-2022-01; assay: MIC/MBC, micro broth dilution; format: cell-based
Procedure: as §1

[10] = test system: S. epidermidis ATCC35984; assay: MIC/MBC, micro broth dilution; format: cell-based
Procedure: as §1

[11] = test system: ICR mice; assay: In vivo safety: serum biochemical indices; conditions: 10 mg/kg i.p. for six consecutive days
Procedure: (§3) Eight 6-week-old ICR mice were randomly divided into two groups and injected intraperitoneally with Ple-AB (10 mg/kg, body weight) and saline for six consecutive days. […] They were weighed daily, and blood was collected on the 7th day for hematological and biochemical analyses. Simultaneously, the heart, liver, spleen, lungs, and kidneys were collected for tissue fixation and hematoxylin–eosin (HE) staining to observe any pathological changes ([Shishkina et al., 2023]).

[12] = test system: S. aureus ATCC43300; assay: Stability in simulated (artificial) gastric fluid read out as MIC; format: in vitro ADME, Staphylococcus aureus
Procedure: as §2

[13] = test system: S. aureus ATCC43300; assay: Salt (metal ion) stability read out as MIC; format: cell-based, Staphylococcus aureus; conditions: triplicates
Procedure: as §2

[14] = test system: murine macrophage RAW 264.7; assay: Cytotoxicity, MTT assay; format: cell-based, mouse
Procedure: The cytotoxicity of Ple-AB toward the murine macrophage RAW 264.7 (Peking Union Medical College) was tested using the MTT assay ([Wang et al., 2018]). Cells (2.5 × 10^4 CFU/mL) were incubated at 37°C for 24 h, and thereafter Ple-AB at a concentration of 2–256 μg/mL was added for 24 h. The supernatant was washed twice, […] 3-(4,5-dimethylthiazol-2-yl)-2,5-diphenyltetrazolium bromide (MTT) solution was added, and the mixture was incubated for 4 h. The absorbance of each well was measured at 570 nm using a microplate reader. PBS (Acontrol) was used as the control. Survival rate (%) = (A/Acontrol) × 100 was calculated.

[15] = test system: ICR mice; assay: In vivo safety: hematological indices; design: RDW-CV / MCHC: unit not given here; conditions: 10 mg/kg i.p. for six consecutive days, blood on 7th day
Procedure: as §3

[16] = micro broth dilution, 1 × 10^5 CFU/mL, repeated thrice
[17] = bovine mastitis isolate, micro broth dilution, 1 × 10^5 CFU/mL, repeated thrice

Compound: CC[C@H](C)[C@@H]1NC(=O)[C@H](CO)NC(=O)[C@H](CCCCN)NC(=O)[C@@H]2CSSC[C@@H](C(=O)N[C@@H](Cc3ccc(O)cc3)C(=O)O)NC(=O)[C@H](CCCCN)NC(=O)[C@@H]3CSSC[C@H](NC(=O)[C@H](CCC(N)=O)NC(=O)[C@H](CCSC)NC(=O)[C@H](CCC(=O)O)NC(=O)[C@H](CC(=O)O)NC(=O)[C@H](Cc4c[nH]c5ccccc45)NC(=O)[C@@H]4CCCN4C(=O)[C@@H](NC(=O)CNC(=O)[C@H](Cc4ccccc4)NC(=O)CN)CSSC[C@H](NC(=O)[C@H](Cc4ccc(O)cc4)NC(=O)CNC(=O)CNC(=O)[C@H](CCCCN)NC(=O)[C@H](Cc4ccc(O)cc4)NC(=O)CNC(=O)[C@H](CCCCN)NC1=O)C(=O)N[C@@H](C)C(=O)N[C@@H](CCCCN)C(=O)NCC(=O)NCC(=O)N[C@@H](Cc1ccccc1)C(=O)N[C@@H](C(C)C)C(=O)N3)C(=O)N[C@@H](Cc1c[nH]cn1)C(=O)N[C@@H](CC(N)=O)C(=O)N[C@@H](Cc1c[nH]cn1)C(=O)N2 [Ple-AB] (H-GFGCPWDEMQCHNHCKSIKGYKGGYCAKGGFVCKCY-OH; disulfide 4-26, 11-33, 15-35; N-terminus and C-terminus assumed)
- MICs, range over Streptococcus [1]: 2 to 4 µg/mL
- Activity against gram-negative bacteria [2]: inactive
- MIC after serum ([3]; Serum (25%)): 16 µg/mL (≈ 4 µM)
- MIC after serum ([3]; Serum (50%)): 16 µg/mL (≈ 4 µM)
- Time to kill all the strains ([4]; 1× MIC): ≤ 4 h
- Time to kill all the strains ([4]; 2× MIC): ≤ 4 h
- Time to 99% bactericidal activity ([4]; 4× MIC): ≤ 2 h
- MBC ([5]; S. agalactiae ATCC13813): 4 µg/mL (≈ 1 µM)
- MIC [5, 16]: 4 µg/mL (≈ 1 µM)
- MBC ([6]; S. epidermidis ATCC12228): 8 µg/mL (≈ 2 µM)
- MIC [6, 16]: 2 µg/mL (≈ 0.5 µM)
- MBC ([7]; S. agalactiae CAU-FRI-2022-02): 4 µg/mL (≈ 1 µM)
- MIC [7, 17]: 2 µg/mL (≈ 0.5 µM)
- MBC ([8]; S. dysgalactiae CVCC3938): 4 µg/mL (≈ 1 µM)
- MIC [8, 16]: 4 µg/mL (≈ 1 µM)
- MBC ([9]; S. agalactiae CAU-FRI-2022-01): 32 µg/mL (≈ 8 µM)
- MIC [9, 17]: 4 µg/mL (≈ 1 µM)
- MBC ([10]; S. epidermidis ATCC35984): 8 µg/mL (≈ 2 µM)
- MIC [10, 16]: 4 µg/mL (≈ 1 µM)
- Serum biochemical indices versus control group ([11]; blood on 7th day): not significantly different
- ALT ([11]; serum on 7th day): 49.07 ± 6.21 IU/L
- AST ([11]; serum on 7th day): 25.85 ± 2.33 IU/L
- Albumin ([11]; serum on 7th day): 35.59 ± 4.58 g/L
- Ca^2+ ([11]; serum on 7th day): 1.38 ± 0.06 mmol/L
- Creatinine ([11]; serum on 7th day): 83.13 ± 4.57 µmol/L
- Globulin ([11]; serum on 7th day): 18.82 ± 0.25 g/L
- Glucose ([11]; serum on 7th day): 1.59 ± 0.15 mmol/L
- Phosphorous ([11]; serum on 7th day): 3.33 ± 0.20 mmol/L
- Total protein ([11]; serum on 7th day): 54.41 ± 4.56 g/L
- Urea Nitrogen ([11]; serum on 7th day): 11.6 ± 0.8 mmol/L
- MIC after Simulated Gastric Fluid ([12]; Simulated Gastric Fluid (pepsin), 1-2 h, triplicates): 16 µg/mL (≈ 4 µM)
- MIC after artificial gastric juice ([12]; artificial gastric juice (pepsin), 2 h): 16 µg/mL (≈ 4 µM)
- MIC with salts ([13]; Ca^2+ (2.5 mM)): 16 µg/mL
- MIC with salts ([13]; Fe^3+ (4 μM)): 16 µg/mL
- MIC with salts ([13]; K^+ (4.5 mM)): 16 µg/mL
- MIC with salts ([13]; Mg^2+ (1 mM)): 16 µg/mL
- MIC with salts ([13]; NH4^+ (6 μM)): 16 µg/mL
- MIC with salts ([13]; Na^+ (150 mM)): 16 µg/mL
- MIC with salts ([13]; Zn^2+ (8 μM)): 16 µg/mL
- Cytotoxicity ([14]; RAW264.7, 256 μg/mL): < 1%
- Cell survival rate ([14]; RAW264.7, 2–256 μg/mL, 24 h, MTT, A570): above 80%
- BASO [15]: 0.09 ± 0.027 10^9/L
- BASO % [15]: 1.09 ± 0.34%
- EO [15]: 0.19 ± 0.106 10^9/L
- EO % [15]: 2.33 ± 1.24%
- HBG [15]: 128 ± 12 g/L
- HCT % [15]: 41.3 ± 2.4%
- LYM [15]: 5.89 ± 0.585 10^9/L
- LYM % [15]: 74.8 ± 3.02%
- MCH [15]: 13.48 ± 0.67 pg
- MCHC [15]: 32.86 ± 1.73
- MCV [15]: 41.73 ± 1.17 fL
- MONO [15]: 0.24 ± 0.066 10^9/L
- MONO % [15]: 3 ± 0.49%
- MPV [15]: 6.63 ± 0.57 fL
- NEUT [15]: 1.49 ± 0.354 10^9/L
- NEUT % [15]: 18.78 ± 1.66%
- PCT % [15]: 0.02 ± 0.01%
- PDW % [15]: 15.85 ± 0.75%
- PLCR % [15]: 15.35 ± 3.65%
- PLT [15]: 782.3 ± 48.25 10^9/L
- RBC [15]: 9.44 ± 0.82 10^12/L
- RDW-CV [15]: 18.58 ± 1.97
- RDW-SD % [15]: 44.55 ± 3.65%
- WBC [15]: 7.89 ± 0.94 10^9/L
- Whole blood cell profiles versus control group [15]: not significantly different

Reference: paper PMC10771296, “Plectasin: from evolution to truncation, expression, and better druggability” (Frontiers in Microbiology, 2023)
